Key:
[1] = system: AMBEL (Ragweed, Common); assay: Preemergence herbicidal evaluation; format: in vivo, Ambrosia artemisifolia; conditions: rated 4-5 weeks after treatment; for AMBEL rating: preemergence, 0-9 scale
Summary of the method: (§1)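 Steps: mix seeds into potting soil; plant atop ~1 inch soil; spray compound in aqueous acetone (~0.0156-0.500 kg/ha equivalent); maintain in greenhouse with watering; rate visually 0-9 versus control at 4-5 weeks.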

[2] = system: ECHORC (Watergrass (Calif.)); assay: Postemergence weed control under flooded paddy conditions; format: in vivo, Echinochloa oryzoides; conditions: postemergence weeds
Summary of the method: (§2)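 Herbicidal effect is judged by eye on a 0–9 scale versus control, 3–4 weeks after dosing. Dosing is into flood water kept 1.5–3 cm over the soil, at about 0.0313–0.500 kg/ha in aqueous/acetone 50/50 v/v, on 3–5 cm weeds and 1.5–2.5-leaf rice seedlings.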

[3] = system: ABUTH (Velvetleaf); assay: Preemergence herbicidal evaluation; format: in vivo, Abutilon theophrasti; conditions: rated 4-5 weeks after treatment; for ABUTH rating: preemergence, 0-9 scale
Summary of the method: as §1

[4] = system: ECHORC (Watergrass (Calif.)); assay: Preemergence weed control under flooded paddy conditions; format: in vivo, Echinochloa oryzoides; conditions: rated 3-4 weeks after treatment
Summary of the method: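 Visual injury scored 0-9 against control three to four weeks post-treatment, greenhouse-grown. Application: acetone/water (50/50) solutions dosed directly into flood water (1.5-3 cm over silt loam, planted top 0.5 cm), roughly 0.0313 to 0.500 kg/ha active ingredient.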

[5] = system: ZEAMX (Corn, Field); assay: Postemergence herbicidal evaluation; format: in vivo, Zea mays; conditions: for ZEAMX herbicidal rating: postemergence
Summary of the method: (§3)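 Rate range approx. 0.0156–0.500 kg/ha. Foliar application at 40 psi to ~2-week seedlings; surfactant 0.5% TWEEN 20 in 50/50 acetone/water. Evaluation 4–5 wk post-treatment by 0–9 visual injury score, means of replicate tests.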

[6] = system: SETVI (Foxtail, Green); assay: Postemergence herbicidal evaluation; format: in vivo, Setaria viridis; conditions: for SETVI herbicidal rating: postemergence
Summary of the method: as §3

[7] = system: CASOB (Sicklepod); assay: Preemergence herbicidal evaluation; format: in vivo, Cassia obtusifolia; conditions: rated 4-5 weeks after treatment; for CASOB rating: preemergence, 0-9 scale
Summary of the method: as §1

[8] = system: ABUTH (Velvetleaf); assay: Postemergence herbicidal evaluation; format: in vivo, Abutilon theophrasti; conditions: for ABUTH herbicidal rating: postemergence
Summary of the method: as §3

[9] = system: CYPIR (Rice Flatsedge); assay: Postemergence weed control under flooded paddy conditions; format: in vivo, Cyperus iria; conditions: postemergence weeds
Summary of the method: as §2

[10] = system: IPOHE (Morningglory, Ivyleaf); assay: Preemergence herbicidal evaluation; format: in vivo, Ipomoea hederacea; conditions: rated 4-5 weeks after treatment; for IPOHE rating: preemergence, 0-9 scale
Summary of the method: as §1

[11] = system: GLXMAW (Soybean, Williams); assay: Postemergence herbicidal evaluation; format: in vivo, Glycine max, (L.) Merr. cv Williams; conditions: for GLXMAW herbicidal rating: postemergence
Summary of the method: as §3

[12] = system: CYPSE (Flatsedge); assay: Preemergence weed control under flooded paddy conditions; format: in vivo, Cyperus serotinus; conditions: rated 3-4 weeks after treatment
Summary of the method: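 Greenhouse paddy assay. Acetone/water (50/50 v/v) solutions dosed into flood water, equivalent to about 0.0313 to 0.500 kg/ha active ingredient, over seeds planted 0.5 cm deep in silt loam. Score: 0-9 visual, based on stand, vigor, malformation, size and chlorosis, 3 to 4 weeks after treatment.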

[13] = system: ECHCG (Barnyardgrass); assay: Preemergence herbicidal evaluation; format: in vivo, Echinochloa crus-galli; conditions: rated 4-5 weeks after treatment; for ECHCG rating: preemergence, 0-9 scale
Summary of the method: as §1

[14] = system: IPOHE (Morningglory, Ivyleaf); assay: Postemergence herbicidal evaluation; format: in vivo, Ipomoea hederacea; conditions: for IPOHE herbicidal rating: postemergence
Summary of the method: as §3

[15] = rate 0.0313 kg/ha, 3-4 weeks after treatment
[16] = rate 0.0625 kg/ha, 3-4 weeks after treatment
[17] = rate 0.1250 kg/ha, 3-4 weeks after treatment
[18] = rate 0.2500 kg/ha, 3-4 weeks after treatment
[19] = Rate 0.0625 kg/ha, rated 3 to 4 weeks after treatment
[20] = Rate 0.1250 kg/ha, rated 3 to 4 weeks after treatment
[21] = Rate 0.2500 kg/ha, rated 3 to 4 weeks after treatment

CCOC(=O)CN1C(=O)C(CC(=O)O)O/C1=N/c1cc(-n2c(=O)cc(C(F)(F)F)n(C)c2=O)c(F)cc1Cl (centres unmarked) [Compound 41, 2-{{2-Chloro-5-[3,6-dihydro-3-methyl-2,6-dioxo-4-(trifluoromethyl)-1(2H)-pyrimidinyl]-4-fluoro-phenyl}imino}-4-oxo-3,5-oxazolidinediacetic acid, 3-ethyl ester]
4.0: Herbicidal rating ECHORC [2, 16] | Herbicidal rating ECHORC ([4]; 0.0625 kg/ha) | Herbicidal rating CYPIR [9, 18]
1.0: Preemergence herbicidal rating AMBEL ([1]; rate 0.0313 kg/ha) | Postemergence herbicidal rating SETVI ([6]; Rate 0.0158 kg/ha)
0.0: Preemergence herbicidal rating AMBEL ([1]; rate 0.0156 kg/ha) | Preemergence herbicidal rating CASOB ([7]; rate 0.0156 kg/ha) | Preemergence herbicidal rating CASOB ([7]; rate 0.0313 kg/ha) | Preemergence herbicidal rating CASOB ([7]; rate 0.0625 kg/ha) | Herbicidal rating CYPIR [9, 15] | Herbicidal rating CYPIR [9, 16] | Herbicidal rating CYPIR [9, 17] | Preemergence herbicidal rating IPOHE ([10]; rate 0.0156 kg/ha) | Preemergence herbicidal rating IPOHE ([10]; rate 0.0313 kg/ha) | Herbicidal rating CYPSE ([12]; 0.0313 kg/ha) | Herbicidal rating CYPSE ([12]; 0.0625 kg/ha) | Preemergence herbicidal rating ECHCG ([13]; rate 0.0156 kg/ha) | Preemergence herbicidal rating ECHCG ([13]; rate 0.0313 kg/ha) | Preemergence herbicidal rating ECHCG ([13]; rate 0.0625 kg/ha) | Preemergence herbicidal rating ECHCG ([13]; rate 0.1250 kg/ha)
7.0: Herbicidal rating ECHORC [2, 18] | Preemergence herbicidal rating ABUTH ([3]; rate 0.0156 kg/ha) | Herbicidal rating ECHORC ([4]; 0.2500 kg/ha) | Postemergence herbicidal rating ZEAMX ([5]; Rate 0.0158 kg/ha) | Preemergence herbicidal rating IPOHE ([10]; rate 0.0625 kg/ha) | Herbicidal rating CYPSE ([12]; 0.2500 kg/ha)
7.5: Postemergence herbicidal rating ZEAMX ([5]; Rate 0.0630 kg/ha)
2.0: Preemergence herbicidal rating AMBEL ([1]; rate 0.0625 kg/ha) | Herbicidal rating CYPSE ([12]; 0.1250 kg/ha) | Preemergence herbicidal rating ECHCG ([13]; rate 0.2500 kg/ha)
8.0: Preemergence herbicidal rating AMBEL ([1]; rate 0.2500 kg/ha) | Postemergence herbicidal rating ZEAMX ([5]; Rate 0.0315 kg/ha) | Postemergence herbicidal rating GLXMAW ([11]; Rate 0.0158 kg/ha) | Postemergence herbicidal rating GLXMAW ([11]; Rate 0.0315 kg/ha)
6.0: Herbicidal rating ECHORC [2, 17] | Herbicidal rating ECHORC ([4]; 0.1250 kg/ha)
9.0: Preemergence herbicidal rating AMBEL ([1]; rate 0.1250 kg/ha) | Preemergence herbicidal rating ABUTH ([3]; rate 0.0313 kg/ha) | Preemergence herbicidal rating ABUTH ([3]; rate 0.0625 kg/ha) | Preemergence herbicidal rating ABUTH ([3]; rate 0.1250 kg/ha) | Preemergence herbicidal rating ABUTH ([3]; rate 0.2500 kg/ha) | Postemergence herbicidal rating SETVI ([6]; Rate 0.0630 kg/ha) | Preemergence herbicidal rating CASOB ([7]; rate 0.1250 kg/ha) | Preemergence herbicidal rating CASOB ([7]; rate 0.2500 kg/ha) | Postemergence herbicidal rating ABUTH ([8]; Rate 0.0158 kg/ha) | Postemergence herbicidal rating ABUTH ([8]; Rate 0.0315 kg/ha) | Postemergence herbicidal rating ABUTH ([8]; Rate 0.0630 kg/ha) | Preemergence herbicidal rating IPOHE ([10]; rate 0.1250 kg/ha) | Preemergence herbicidal rating IPOHE ([10]; rate 0.2500 kg/ha) | Postemergence herbicidal rating GLXMAW ([11]; Rate 0.0630 kg/ha) | Postemergence herbicidal rating IPOHE ([14]; Rate 0.0158 kg/ha) | Postemergence herbicidal rating IPOHE ([14]; Rate 0.0315 kg/ha) | Postemergence herbicidal rating IPOHE ([14]; Rate 0.0630 kg/ha)
3.0: Herbicidal rating ECHORC [2, 15] | Herbicidal rating ECHORC ([4]; 0.0313 kg/ha) | Postemergence herbicidal rating SETVI ([6]; Rate 0.0315 kg/ha)

COC(=O)C1(N2C(=O)CSC2=Nc2cc(-n3c(=O)cc(C(F)(F)F)n(C)c3=O)c(F)cc2Cl)CCCCC1 [Compound 81, Methyl 1-{2-{{2-chloro-5-[3,6-dihydro-3-methyl-2,6-dioxo-4-(trifluoromethyl)-1(2H)-pyrimidinyl]-4-fluorophenyl}imino}-4-oxo-3-thiazolidinyl}-cyclohexanecarboxylate]
6.0: AMBEL rating ([1]; 0.0313 kg/ha) | AMBEL rating ([1]; 0.0625 kg/ha)
5.0: Herbicidal rating CYPIR [9, 20] | Herbicidal rating CYPIR [9, 21]
4.0: Herbicidal rating CYPIR [9, 19]
7.0: ZEAMX herbicidal rating ([5]; rate 0.0315 kg/ha) | ZEAMX herbicidal rating ([5]; rate 0.0630 kg/ha) | ABUTH herbicidal rating ([8]; rate 0.0158 kg/ha) | ABUTH herbicidal rating ([8]; rate 0.0315 kg/ha)
9.0: AMBEL rating ([1]; 0.1250 kg/ha) | AMBEL rating ([1]; 0.2500 kg/ha) | ABUTH rating ([3]; 0.0313 kg/ha) | ABUTH rating ([3]; 0.0625 kg/ha) | ABUTH rating ([3]; 0.1250 kg/ha) | ABUTH rating ([3]; 0.2500 kg/ha) | SETVI herbicidal rating ([6]; rate 0.0630 kg/ha) | ABUTH herbicidal rating ([8]; rate 0.0630 kg/ha) | IPOHE rating ([10]; 0.2500 kg/ha) | IPOHE herbicidal rating ([14]; rate 0.0158 kg/ha) | IPOHE herbicidal rating ([14]; rate 0.0315 kg/ha) | IPOHE herbicidal rating ([14]; rate 0.0630 kg/ha)
6.5: ZEAMX herbicidal rating ([5]; rate 0.0158 kg/ha) | GLXMAW herbicidal rating ([11]; rate 0.0158 kg/ha) | GLXMAW herbicidal rating ([11]; rate 0.0315 kg/ha) | GLXMAW herbicidal rating ([11]; rate 0.0630 kg/ha)
3.0: Herbicidal rating ECHORC [2, 20] | Herbicidal rating ECHORC [2, 21] | ECHORC herbicidal effect rating ([4]; 0.1250 kg/ha) | ECHORC herbicidal effect rating ([4]; 0.2500 kg/ha)
1.0: SETVI herbicidal rating ([6]; rate 0.0158 kg/ha) | SETVI herbicidal rating ([6]; rate 0.0315 kg/ha) | IPOHE rating ([10]; 0.1250 kg/ha) | ECHCG rating ([13]; 0.2500 kg/ha)
0.0: Herbicidal rating ECHORC [2, 19] | ECHORC herbicidal effect rating ([4]; 0.0625 kg/ha) | CASOB rating ([7]; 0.0313 kg/ha) | CASOB rating ([7]; 0.1250 kg/ha) | CASOB rating ([7]; 0.2500 kg/ha) | IPOHE rating ([10]; 0.0313 kg/ha) | CYPSE herbicidal effect rating ([12]; 0.0625 kg/ha) | CYPSE herbicidal effect rating ([12]; 0.1250 kg/ha) | CYPSE herbicidal effect rating ([12]; 0.2500 kg/ha) | ECHCG rating ([13]; 0.0313 kg/ha) | ECHCG rating ([13]; 0.0625 kg/ha) | ECHCG rating ([13]; 0.1250 kg/ha)
